In patent publication US20250134913A1, “ORAL DOSAGE FORMS OF TRβ AGONIST VK2809 FOR THE TREATMENT OF LIVER DISORDERS AND METHODS OF PREPARING THE SAME” (Viking Therapeutics, Inc., priority 2022, published 2025):
≈ marks a conversion by molar mass, not a printed value.

How the values were obtained:
Format in all cases: physicochemical
[1] = Open stability of spray dried dispersions by HPLC; conditions: Stored at Room Temp.
Method: The stability samples were tested using H-PLC using the method in Table 4.
The stability samples were tested for assay and related substances. […] This is mainly due to an API process-related impurity.

[2] = Equilibrium solubility of crystalline Compound 1 (supernatant concentration after ultracentrifugation); conditions: 37° C.
Source text: Experimental values for solubility, listed in Table 2, were obtained by measuring supernatant concentrations after centrifugation at 386,000×g.

[3] = Closed stability packaging study of PVP-VA SDDs by HPLC; conditions: Stored at Room Temp.
Method: Chemical stability of PVP-VA-containing SDDs of Compound 1 under closed conditions was evaluated by HPLC using the method provided herein in Table 4.

[4] = Gastric-to-intestinal buffer (G-IB) transfer non-sink dissolution test
Method: The SDDs were evaluated in a non-sink dissolution test designed to monitor dissolution rate, as well as inhibition of crystallization, on transfer from simulated gastric to simulated intestinal media. For the gastric-to-intestinal buffer (G-IB) transfer dissolution test, pH 2 (“gastric”; “G”) media was added to each sample at a target dose concentration of 1000 μg Compound 1/mL. After 30 minutes of exposure to gastric media, concentrated simulated intestinal buffer was added to reach a final composition of 0.5% SIF in PBS, pH 6.5 at half the dose concentration (500 μg Compound 1/mL). This dose concentration was selected at twice the estimated amorphous solubility in an attempt to discriminate on dissolution rate and sustainment of supersaturation simultaneously. The concentration was monitored by UV fiber optic probes in situ (stir rate: 100 revolutions per minute) as well as being assessed by either microcentrifugation (15,800×g) or ultracentrifugation (300,000×g). The microcentrifuge separated the precipitate (undissolved drug) and total solubilized drug. Total solubilized drug consists of three solubilized species: freely solubilized drug (“free drug”), drug associated with bile salt micelles (“micelle bound drug”), and drug in small aggregate roughly 50-300 nm in size (“colloidal drug”). The ultracentrifuge further separates the colloidal drug and the supernatant contains only free drug and micelle bound drug. These three species have different activities in vivo and can be used to help differentiate formulations. Free drug is the smallest species and is the only species considered to partition directly into the cell membrane of the epithelium. Micelle bound drug can cross the unstirred mucous boundary layer and source free drug once a concentration gradient has been created by freely solubilized drug being absorbed. Finally, the drug-polymer colloids are a source of rapidly dissolving drug and may, in some cases, penetrate the unstirred mucous boundary layer (Stewart et al. Mol. Pharmaceutics, 2017, 12, 2437-2449)
All SDD formulations containing enteric polymers reached the amorphous solubility in intestinal buffer within 10 minutes. […] The exact reason for this shift is currently unknown. It may be attributable to detector saturation, arising from the undissolved solids, or a specific interaction between the drug and polymer in solution.

[5] = Stability study of tablet formulations; conditions: Stored at Room Temp.
Method: Tablet formulations were subjected to a stability study. Tablets were packaged in heat sealed HDPE bottles with minimal headspace and stored in temperature-controlled stability chambers at 50° C., 40° C., and 25° C., and 5° C. Humidity in the chambers was either controlled or allowed to be at ambient humidity. The conditions are listed for each particular formulation in Table 11 below.

[6] = physchem
Method: The amorphous solubility of amorphous Compound 1 was determined by slow addition of the API from an organic stock solution into the aqueous medium of interest. When the amorphous solubility was reached, a drug rich phase formed and was measured by detection by scattering of UV/Visible light and/or by dynamic light scattering (DLS).
The solubility of amorphous Compound 1 was evaluated in PBS at pH 6.5 alone and with 0.5% simulated intestinal fluid (SIF). […] The onset of scattering in the SIF containing media occurred after 180-210 μg/mL Compound 1. […] This is consistent with the initial solubility testing where the crystalline solubility in PBS in the absence of bile salts is exceedingly low.

[7] = Closed stability packaging study of spray dried dispersions by HPLC; conditions: Stored at Room Temp.
Method: Due to the extensive degradation observed after 2 weeks at 40° C./75% RH open, a closed with desiccant condition stability study was initiated for Compound 1 SDDs. Samples were evaluated for stability at 2 weeks, 6 weeks, and 3 months when stored in 4 mL scintillation vials and sealed in 60 cc HDPE bottles with heat induction sealing and 0.5 g desiccant.
Chemical stability of Compound 1 SDDs after 2 weeks under closed conditions was evaluated by HPLC using the method provided herein in Table 4. […] All SDDs containing cellulosic polymers show the same growth of an impurity after 2 weeks at 40/75 closed. Upon closer inspection, this impurity is present in the in-going API at a level that was below the threshold used for integration. […] Further evidence of unknown degradants that may form during manufacture and co-elute with known synthetic impurities was observed. Closed stability degradation data at two weeks is provided in Table 6, while closed stability degradation data at six weeks is provided in Table 7. Additionally, no changes in particle morphology and crystallinity for the SDDs after 6 weeks at 40° C./75% RH were observed.

Cc1cc(OC[P@@]2(=O)OCC[C@@H](c3cccc(Cl)c3)O2)cc(C)c1Cc1ccc(O)c(C(C)C)c1 [Compound 1]
Compound 1 Relative abundance [1]: 97.61% | Impurities Relative abundance [1]: 2.47% | Ultracentrifuge Concentration ([2]; 0.01N HCl, 90 min): <0.05 μg Compound 1/mL | Ultracentrifuge Concentration ([2]; 0.01N HCl, 20 hours): <0.05 μg Compound 1/mL | Ultracentrifuge Concentration ([2]; 0.5% Simulated intestinal fluid (SIF) in PBS, pH 6.5, 90 min): 92 μg Compound 1/mL | Ultracentrifuge Concentration ([2]; 0.5% Simulated intestinal fluid (SIF) in PBS, pH 6.5, 20 hours): 87 μg Compound 1/mL | Ultracentrifuge Concentration ([2]; PBS, pH 6.5, 90 min): <0.05 μg Compound 1/mL | Ultracentrifuge Concentration ([2]; PBS, pH 6.5, 20 hours): 0.6 μg Compound 1/mL | Compound 1 Relative abundance [3]: 97.54% | Impurities Relative abundance [3]: 2.33% | Concentration, IB 10 min, micro ([4]; 0.5% SIF in PBS pH 6.5, 10 min, microcentrifuge, dose 500 μg/mL): 39 μg Compound 1/mL | Concentration, IB 10 min, ultra ([4]; 0.5% SIF in PBS pH 6.5, 10 min, ultracentrifuge, dose 500 μg/mL): 49 μg Compound 1/mL | Concentration, IB 90 min, micro ([4]; 0.5% SIF in PBS pH 6.5, 90 min, microcentrifuge, dose 500 μg/mL): 88 μg Compound 1/mL | Concentration, IB 90 min, ultra ([4]; 0.5% SIF in PBS pH 6.5, 90 min, ultracentrifuge, dose 500 μg/mL): 88 μg Compound 1/mL | Concentration, G 20 min, micro ([4]; gastric media pH 2, 20 min, microcentrifuge, dose 1000 μg/mL): 0 μg Compound 1/mL | Compound 1 Relative abundance ([5]; 2 month analysis): 97.22% | Impurities Relative abundance ([5]; 2 month analysis): 2.78% | Compound 1 Relative abundance ([5]; 3 month analysis): 97.45% | Impurities Relative abundance ([5]; 3 month analysis): 2.55% | solubility ([6]; 37 °C, pH 6.5, fassif, kinetic from dmso stock): 0.18 to 0.21 mg/mL (≈ 350 to 408 µM) | Amorphous solubility behaviour ([6]; pH 6.5): precipitated as soon as the stock solution was introduced to the medium | Compound 1 Relative abundance ([7]; 2 week analysis): 97.07% | Impurities Relative abundance ([7]; 2 week analysis): 2.95% | Compound 1 Relative abundance ([7]; 6 week analysis): 97.70% | Impurities Relative abundance ([7]; 6 week analysis): 2.33%
